According to PubChem BioAssay AID743417 (Broad Institute, 2014):
Results filed as inconclusive are left out.

tested on: Clone20 osteoblast Shn3 3'UTR firefly luciferase, 24 h; experiment: Shn3 3'UTR reporter inhibitors, dose response, cell-based, Clone20 osteoblasts, luminescence, dry powder, set 2 (AID 743417)

| SMILES | AC50 |
| --- | --- |
| Cc1ccc(CS(=O)(=O)c2ncc(Cl)c(C(=O)Nc3ccc(OC(F)F)cc3)n2)cc1 | 2340 nM |
| C=CCNc1nc2c(c(=O)n(C)c(=O)n2C)n1CCCCCC | 761 nM |
| Cc1cc(S(=O)(=O)c2ccc(Cl)cc2)nc(S(=O)(=O)c2ccc(Cl)cc2)c1C#N | 2830 nM |
| Cc1cc(C)n(-c2ccc3cccc(NS(C)(=O)=O)c3n2)n1 | 1320 nM |
| COc1ccc(CC(=O)Nc2ccncc2Cl)cc1 | 2120 nM |
| CC(C)Cc1ccc(C(C)C(=O)Nc2ccccc2O)cc1 (stereo unspecified) | 1890 nM |
| COc1ccc(C(=O)NCCN(C)C)c2nc3ccccc3cc12 | 5780 nM |
| CC(C)C[C@@H](CN1CCCC1CN1C(=S)NC[C@@H]1Cc1ccc(O)cc1)N1C[C@H](Cc2ccc(O)cc2)N(CC2CCCCCC2)C1=S (stereo partly specified) | 18800 nM |
| COc1ccc(NS(=O)(=O)c2ccc(-c3cnc(C4CC4)o3)cc2)cc1OC | 1330 nM |
| Nc1nonc1C(=O)NCCNCc1cc(Br)ccc1OCc1ccccc1F | 2500 nM |
| CN(c1ccccc1)c1ccc(/C=C/[N+](=O)[O-])cc1 | 5790 nM |
| O=[N+]([O-])c1cc(CN2CCN(c3ccccc3)CC2)c(O)c2ncccc12 | 1990 nM |
| CC(C)=CCC/C(C)=C/CNC(=O)C[C@H]1C[C@H](C(=O)N2CCOCC2)[C@@]2(C)c3[nH]c4cc(CCC(=O)N(C)C)ccc4c3CCN2C1=O | 1110 nM |
| CCCCCCN1C[C@H](n2cc(-c3ccc(F)cc3)nn2)[C@@H](O)C[C@@H]1c1ccc(Cl)cc1 | 10300 nM |
| CCN(CC)CCn1c(=N)n(CC(O)COc2cccc(C)c2)c2ccccc21 (stereo unspecified) | 4390 nM |
| Cc1ccc(S(=O)(=O)N2CCN(c3ncnc4sccc34)CC2)cc1 | 2720 nM |
| c1ccc(CNc2ncnc3scc(-c4cccs4)c23)nc1 | 3590 nM |
| O=C(Nc1ccc(Cl)cc1)c1cc(S(=O)(=O)N2CCOCC2)cs1 | 4230 nM |
| O=C(OCC12CC3CC(CC(C3)C1)C2)c1ccc(NCc2cc(O)ccc2O)cc1 | 3250 nM |
| O=C1C(=C(c2ccccc2)N2CCOCC2)Cc2ccccc21 | 999 nM |
| COc1ccc(-c2nc(-c3ccc(NC(=O)c4ccncc4)cc3)no2)cc1OC | 2360 nM |

| SMILES | AC50 |
| --- | --- |
| COc1ccc(C)c2sc(N(CCCN(C)C)C(=O)c3ccc(S(=O)(=O)N4CCc5ccccc5C4)cc3)nc12 | 4400 nM |
| Cn1nc(C(C)(C)C)cc1C(=O)N1CCCCC1c1cc(C(=O)Nc2ccc(F)c(Cl)c2)no1 (stereo unspecified) | 3040 nM |
| Cn1cc(S(=O)(=O)N2CCc3ccccc32)cc1C(=O)NC(C)(C)C | 1250 nM |
| CCCc1nc([N+](=O)[O-])c(S(=O)(=O)c2ccccc2)n1CC(C)C | 7390 nM |
| COc1cc2ncnc(N[C@H](C)c3ccccc3)c2cc1OC | 8720 nM |
| Cc1cccc(C)c1NC(=O)c1nc(S(=O)(=O)Cc2ccccc2)ncc1Cl | 4330 nM |
| O=C(OC12CC3CC(CC(C3)C1)C2)c1ccc(NCc2cc(O)ccc2O)cc1 | 2330 nM |
| O=C(NCc1cccc(Cl)c1)c1cc(COc2ccc3ncccc3c2)on1 | 3050 nM |
| CCCc1nnc(NC(=O)c2nc(S(=O)(=O)Cc3cccc(C)c3)ncc2Cl)s1 | 2550 nM |
| Cc1cc2c(cc(C(=O)OC(C(=O)NC3CCCCC3)C(C)C)n2C)o1 (stereo unspecified) | 5900 nM |
| COc1cc(CSc2nnnn2-c2ccc(C)cc2)cc(OC)c1OC | 1020 nM |
| O=c1[nH]c2ccccc2n1C1CCN(C(CCc2ccccc2)c2nnnn2Cc2ccccc2)CC1 (stereo unspecified) | 1230 nM |
| c1ccc(-c2cc3nc(NCC4CC4)nc(NCC4CCCCC4)c3s2)cc1 | 2670 nM |
| O=S(=O)(c1ccccc1C(F)(F)F)N1CCN(c2ncnc3sccc23)CC1 | 3440 nM |
| CS(=O)(=O)c1ccc(C(=O)OCC(=O)NCc2cccs2)cc1[N+](=O)[O-] | 2070 nM |
| O=C(c1cccc(S(=O)(=O)N2CCN(c3ccccc3)CC2)c1)N1CCCC(C(F)(F)F)C1 (stereo unspecified) | 2680 nM |
| Cc1nc(N2CCN(C(=O)c3ccco3)CC2)c2c3c(sc2n1)CC(C)CC3 (stereo unspecified) | 2330 nM |
| COC(=O)C[C@]1(C(=O)OC)CN(C#N)N(c2ccc(Cl)cc2)C12c1ccccc1-c1ccccc12 | 1880 nM |
| CCSc1nnc(NC(=O)c2nc(S(=O)(=O)Cc3ccc(F)cc3)ncc2Cl)s1 | 4960 nM |
| CCCc1nc2ccc(Br)cc2c(=O)n1-c1ccc([N+](=O)[O-])c(C(F)(F)F)c1 | 15700 nM |
